Data on one molecule can be found in patent US5576296A, “Galanin antagonist” (priority 1991, dated 1996).

In this experiment the test system is scopolamine-induced release of ACh. The experiment can be described thus: Microdialysis: scopolamine-induced release of ACh in vivo from rat ventral hippocampus. To be noted: scopolamine 0.3 mg/kg s.c. alone; peak (second) 20 min fraction; n=2. The protocol:
2) Galanin inhibits acetylcholine release, measured according to Fisone G., et al (Proc. Natl. Acad. Sci. vol 84, 1987, 7339-7343). By using substantially the same procedure as the cited Fisone G., et al, a peptide according to the invention, M15, is now shown to counteract the inhibitory effects of galanin on the scopolamine-induced release of acetylcholine in vivo.
Surgery and basic methodology. Experiments were carried out with female CD-COBS (Charles River, Como, Italy) rats, weighing 200-260 g. Animals were anesthetized with equitensin (1% pentobarbital, 4% chloral hydrate). […] The microdialysis probe extended 3 mm beyond the end of the guide cannula; it was perfused at a constant rate of 2 μl (min with Ringer's solution (NaCl, 147 mM; CaCl2, 2.2 mM and KCl, 4.0 mM), containing 10 μM physostigmine sulfate and adjusted to pH 7.0 with NaOH. The initial 40 min perfusate was discarded. Thereafter, perfusates were collected every 20 min during a total perfusion period of 260 min. At the end of the collection period, the samples were immediately frozen on solid CO2 and lyophilized. Acetylcholine (Ach) content was quantified by a specific radioenzymatic method described in detail by Consolo S., et al. (J. Neurochem. […]

The molecule `CN1[C@@H]2C[C@@H](OC(=O)[C@H](CO)c3ccccc3)C[C@H]1[C@@H]1O[C@@H]12` [Scopolamine] returned an ACh release of 13.1 pmol.
